Assay [1] concerns depressant effects induced by tetrabenazine. Briefly: Antitetrabenazine test in mice (blocking of tetrabenazine-induced depressant effects). The assay is classed as in vivo. The settings on record: Mus musculus, ip, compound intraperitoneally, tetrabenazine intravenously. The text has this:
Compounds preferred for their antidepressant activity have the formula: [drawing 4] Illustrative of the antidepressant activity of compounds of Formula Ia are the effective dosages determined by the foregoing anti-tetrabenazine test.

The next assay deals with cardiac arrhythmia. Briefly: Counteracting of ouabain-induced cardiac arrhythmia in anesthetized dogs. The assay is classed as in vivo, adult mongrel dogs. As to the method:
The procedure is carried out under barbiturate anesthesia using adult mongrel dogs of either sex weighing from 8 to 14 kg. A Grass Model 7 polygraph was used for recording femoral arterial blood pressure (Statham P23AC Transducer) and the electrocardiogram (Grass 7P4 Preamplifier). Ouabian was given intravenously in an initial dose of 40γ/kg in a second dose of 20γ/kg, given 30 minutes after the first dose, and in subsequent doses of 10γ/kg which were repeated at 15 minute intervals as required for producing cardiac arrhythmias that persisted for at least 15 minutes. When the arrhythmias were established the test compounds were administered by infusion (Harvard Model 942 Infusion Pump) into a femoral vein at a rate of 1 mg/kg/min. Concentrations of compounds were adjusted according to the weight of the dog to allow a volume infusion of 1 ml/min. Compounds that are considered to be active as antiarrhythmic agents cause reversion to sinus rhythm which is maintained for at least 60 minutes.

Where a name gives a salt, the structure may show the parent alone.

Regarding `CCN1C[C@@H](O)[C@H](Oc2ccccc2Cl)C1` (relative stereo) [Example 48, Trans-4-(2-chlorophenoxy)-1-ethyl-3-pyrrolidinol Hydrochloride], the ED50 (usually the dose at which the effect has come halfway, by size or by number of responders) in assay [1] came to 2.8 mg/kg.
On the same count and under the same terms, the value for `CCN1C[C@@H](O)[C@H](Oc2ccccc2)C1` (relative stereo) [Example 46, Trans-1-ethyl-4-phenoxy-3-pyrrolidinol Oxalate Hydrate (4:1)] was 3.5 mg/kg; that for `CCN1C[C@@H](O)[C@H](Oc2c(Cl)cccc2Cl)C1` (relative stereo) [Example 49, Trans-4-(2,6-dichlorophenoxy)-1-ethyl-3-pyrrolidinol Hydrochloride] was 4.8 mg/kg.
For `CN1C[C@@H](O)[C@H](Oc2ccccc2)C1` (relative stereo) [Example 3, Trans-1-methyl-4-phenoxy-3-pyrrolidinol], the ED50 in assay [1] amounted to 3.7 mg/kg.
`CCN1C[C@@H](O)[C@H](Oc2cccc3ccccc23)C1` (relative stereo) [Example 55, Trans-1-ethyl-4-(1-naphthalenyloxy)-3-pyrrolidinol Hydrochloride]: in the assay on cardiac arrhythmia (Canis lupus familiaris, iv, 1 h, barbiturate anesthesia, ouabain arrhythmia, infusion into femoral vein 1 mg/kg/min, reversion to sinus rhythm maintained at least 60 minutes, read-out: antiarrhythmic activity, minimum effective dose), the minimal effective dose was determined as 10.7 mg/kg. Besides, the “antiarrhythmic activity (in words)” value in the assay with cardiac arrhythmia (ouabain-induced arrhythmia) was “exceptional antharrhythmic activity”.

These data come from patent publication US4452809A, “Trans-4-(2-chlorophenoxy)-1-ethyl-3-pyrrolidinol and anti-depressant use thereof” (A. H. Robins Company, Inc., priority 1983, dated 1984).
